ChEMBL document CHEMBL1126497, “A new type of cytotoxic annonaceous acetogenin: Giganin from goniothalamus giganteus” (1993)
Converted amounts (≈) assume the structure as drawn.

Columns and labels:
Type in all cases: functional
A549 = assay: The compound was tested for cytotoxicity against A-549 cell in human lung carcinoma; conditions: read-out: ED50 (the source's name)
[1] = The compound was tested for cytotoxicity against BST cell in brine shrimp; conditions: Artemia
HT-29 = assay: The compound was tested for cytotoxicity against […] in human colon adenocarcinoma; conditions: read-out: ED50 (the source's name)
MCF7 = assay: The compound was tested for cytotoxicity against MCF-7 cell in human breast carcinoma; conditions: read-out: ED50 (the source's name)

## CCCCCCCCCCCCCCC(O)C(O)CC/C=C\CCC(O)CCCCCC(O)CC1=CC(C)OC1=O (centres undefined)
A549
  EC50: 0.0188 µg/mL (≈ 0.0324 µM)
[1]
  LC50: 890 µg/mL (≈ 1530 µM)
HT-29
  EC50: 6.88 ng/mL (≈ 0.0118 µM)
MCF7
  EC50: 1.03 µg/mL (≈ 1.77 µM)
